The values below come from ChEMBL document CHEMBL1201862, “PubChem BioAssay data set” (2004).

SMILES strings stand for the structures.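 Assay format: 96-well plates, 48-hour exposure. GI50 = concentration required for 50% inhibition of growth.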 Active and inactive are the calls of the source. Rule as the data show it: active = GI50 up to about 1.1 µM and inactive = higher.

Some test systems named below: COLO 205; SR; HT-29; HCC 2998; SF-268; LOX IMVI; NCI-H23; SK-MEL-2; SK-MEL-5; DU-145; M14; MCF7; CAKI-1; EKVX; OVCAR-8; ACHN; Malme-3M; CCRF-CEM; SNB-19; RPMI-8226.
Test in all cases: NCI-60 cell line screen, 48 h

Regarding `[O-][s+]1c2c(Cc3ccccc3)c(Cc3ccccc3)c1CCc1cccc(c1)CC2`, the GI50 was 17.5 µM (inactive) with COLO 205; 17.2 µM (inactive) in the experiment on SR; 11.9 µM (inactive) in the experiment with HT-29; 14.1 µM (inactive) in the experiment on HCC 2998; 15.6 µM (inactive) in the experiment with SF-268; 14 µM (inactive) in the experiment with LOX IMVI. Further, the GI50 with NCI-H23 is 12.7 µM (inactive); in the experiment on SK-MEL-2 it was 17 µM (inactive); in the experiment with SK-MEL-5, 14.9 µM (inactive); with DU-145, 15.8 µM (inactive); in the experiment with M14 it was 14.7 µM (inactive); in the experiment on MCF7, 11.1 µM (inactive). The GI50 was 11.9 µM (inactive) in the experiment with CAKI-1; 13.2 µM (inactive) in the experiment with EKVX; 13.3 µM (inactive) in the experiment with OVCAR-8; 16.7 µM (inactive) in the experiment on ACHN; 17.1 µM (inactive) in the experiment with Malme-3M; 19.6 µM (inactive) in the experiment on CCRF-CEM. In addition, in the experiment with SNB-19, the GI50 is 14.6 µM (inactive).

On to `COc1ccccc1[S+]([O-])Nc1ccccc1` (stereo not drawn), for which the GI50 was > 100 µM (inactive) in the experiment with COLO 205; 21.6 µM (inactive) with SR; 50.9 µM (inactive) in the experiment with HT-29; 83.2 µM (inactive) with HCC 2998; 16.7 µM (inactive) in the experiment on SF-268; 71.9 µM (inactive) with LOX IMVI. For the same compound, the GI50 in the experiment on NCI-H23 was > 100 µM (inactive); in the experiment with SK-MEL-2, 34 µM (inactive); in the experiment with SK-MEL-5, 25.5 µM (inactive); in the experiment on DU-145 it was > 100 µM (inactive); in the experiment on MCF7 it was > 100 µM (inactive); with EKVX it was > 100 µM (inactive). In addition, the GI50 with OVCAR-8 is > 100 µM (inactive); with ACHN, 87.7 µM (inactive); with Malme-3M it was > 100 µM (inactive); with RPMI-8226, 72.9 µM (inactive); with CCRF-CEM it was 54.5 µM (inactive); in the experiment on SNB-19, > 100 µM (inactive).

For `O=C(/C=C/c1ccsc1)c1cccs1`, the GI50 in the experiment on COLO 205 is 34.1 µM (inactive); in the experiment with SR, > 10 µM (inactive); with HT-29, 36.9 µM (inactive); in the experiment with HCC 2998 it was 19.7 µM (inactive); in the experiment with SF-268 it was 28.2 µM (inactive); in the experiment with NCI-H23, 22.5 µM (inactive). The GI50 in the experiment on SK-MEL-5 was 14.6 µM (inactive); in the experiment with DU-145, > 100 µM (inactive); in the experiment on M14, 22.8 µM (inactive); in the experiment on MCF7, 17 µM (inactive); in the experiment on CAKI-1, 27.3 µM (inactive); in the experiment with EKVX it was 41.3 µM (inactive). Besides, the GI50 in the experiment on OVCAR-8 is > 10 µM (inactive); in the experiment on ACHN it was 52.1 µM (inactive); in the experiment on Malme-3M, 50 µM (inactive); in the experiment with CCRF-CEM, 18.5 µM (inactive); in the experiment on SNB-19 it was 42.6 µM (inactive).

With `CSc1ccc(C2C(Cl)C(=O)N2NC(=O)c2c(Cl)c(Cl)c(Cl)c(Cl)c2-c2nc3ccccc3[nH]2)cc1` (stereo not drawn), the GI50 was 20.3 µM (inactive) in the experiment with COLO 205; 2.9 µM (inactive) in the experiment with SR; 33.3 µM (inactive) in the experiment with HT-29; 20.2 µM (inactive) in the experiment on HCC 2998; 19.1 µM (inactive) in the experiment with SF-268; 4.18 µM (inactive) in the experiment on LOX IMVI. The GI50 was 15.6 µM (inactive) in the experiment on NCI-H23; 31.6 µM (inactive) with SK-MEL-2; 17.1 µM (inactive) in the experiment on SK-MEL-5; 15.8 µM (inactive) in the experiment with DU-145; 20.5 µM (inactive) in the experiment with M14; 19.3 µM (inactive) in the experiment with MCF7. Moreover, the GI50 was 14.9 µM (inactive) with CAKI-1; 16.5 µM (inactive) in the experiment on EKVX; 18.8 µM (inactive) with OVCAR-8; 24.2 µM (inactive) with ACHN; 19 µM (inactive) in the experiment with Malme-3M; 2.48 µM (inactive) with CCRF-CEM. In the experiment with SNB-19, the GI50 was 29.7 µM (inactive).

For the compound `c1ccc(-c2nc3ccccc3n3nnnc23)cc1`, the GI50 in the experiment with COLO 205 is > 100 µM (inactive); in the experiment on SR, > 100 µM (inactive); in the experiment on HT-29 it was > 100 µM (inactive); with HCC 2998 it was > 100 µM (inactive); in the experiment on SF-268, 75.7 µM (inactive); with LOX IMVI it was > 100 µM (inactive). Further, the GI50 in the experiment on NCI-H23, with SK-MEL-2, in the experiment on SK-MEL-5, with DU-145, with M14 and with MCF7 was > 100 µM (inactive) in each case. Besides, the GI50 was 11.5 µM (inactive) in the experiment on EKVX; > 100 µM (inactive) with ACHN; > 100 µM (inactive) in the experiment on Malme-3M; > 100 µM (inactive) in the experiment with RPMI-8226; > 100 µM (inactive) in the experiment on CCRF-CEM; 75.7 µM (inactive) with SNB-19.

On to `Sc1nnc(-c2ccccc2Nc2ccccc2-c2nnc(S)n2-c2ccccc2)n1-c1ccccc1`, for which the GI50 in the experiment on COLO 205 was 34.8 µM (inactive); in the experiment with SR, 37 µM (inactive); with HT-29, 35.5 µM (inactive); with HCC 2998 it was 36.6 µM (inactive); in the experiment with SF-268, 69.7 µM (inactive); with LOX IMVI it was 42.5 µM (inactive). In addition, the GI50 with NCI-H23 is 34.4 µM (inactive); in the experiment on SK-MEL-2 it was 27 µM (inactive); with SK-MEL-5, 23.7 µM (inactive); in the experiment with DU-145, 56.6 µM (inactive); in the experiment with M14 it was 40.8 µM (inactive); in the experiment with MCF7, 37.2 µM (inactive). Further, the GI50 in the experiment with CAKI-1 is 31.3 µM (inactive); in the experiment with EKVX, 32.4 µM (inactive); with OVCAR-8 it was 72.6 µM (inactive); in the experiment on ACHN, 38.3 µM (inactive); with RPMI-8226, 20 µM (inactive); in the experiment with CCRF-CEM, 32.5 µM (inactive). The GI50 in the experiment with SNB-19 is 46.9 µM (inactive).

In the case of `Nc1nc(Cl)c(CO)c(NCC2(CO)CCC2)n1`, the GI50 with COLO 205, in the experiment on SR, with HT-29, in the experiment on HCC 2998, in the experiment with SF-268 and with LOX IMVI was > 100 µM (inactive) throughout. Moreover, the GI50 with NCI-H23 was 41.9 µM (inactive); with SK-MEL-5 it was > 100 µM (inactive); with DU-145 it was > 100 µM (inactive); in the experiment with MCF7 it was > 100 µM (inactive); in the experiment on CAKI-1, > 100 µM (inactive); in the experiment with EKVX it was > 100 µM (inactive). Besides, the GI50 was > 100 µM (inactive) in the experiment with OVCAR-8; > 100 µM (inactive) in the experiment on ACHN; > 100 µM (inactive) in the experiment with Malme-3M; > 100 µM (inactive) with RPMI-8226; > 100 µM (inactive) in the experiment on CCRF-CEM; 94.2 µM (inactive) in the experiment with SNB-19.

On to `Nc1nc(Cl)c(N)c(NCC2(CO)CC(CCCc3ccccc3)C2)n1` (stereo not drawn), for which the GI50 with COLO 205 is 16 µM (inactive); in the experiment on SR, 23.6 µM (inactive); in the experiment on HCC 2998, 38.2 µM (inactive); in the experiment with SF-268 it was 23 µM (inactive); in the experiment with LOX IMVI, 16.7 µM (inactive); in the experiment on SK-MEL-2, 0.137 µM (active). For the same compound, the GI50 in the experiment with DU-145 is 68.7 µM (inactive); with M14, 22 µM (inactive); with MCF7 it was 8.02 µM (inactive); in the experiment on CAKI-1, 34.8 µM (inactive); with EKVX, 0.223 µM (active); in the experiment with ACHN, 35.6 µM (inactive). The GI50 in the experiment on Malme-3M was 1.26 µM (inactive); in the experiment on CCRF-CEM it was 0.0451 µM (active); in the experiment with SNB-19 it was > 55.5 µM (inactive).

For the compound `CC1=CCC[C@H]2[C@](C)(CC3=CC(=O)C(SCC(C)C)=CC3=O)[C@@H](C)CC[C@]12C`, the GI50 with COLO 205 is 13.2 µM (inactive); in the experiment with SR, 7.29 µM (inactive); in the experiment with HT-29 it was 15.4 µM (inactive); in the experiment with HCC 2998 it was 16.3 µM (inactive); in the experiment with LOX IMVI it was 7.41 µM (inactive); with NCI-H23, 8.99 µM (inactive). Further, the GI50 with SK-MEL-2 was 15.9 µM (inactive); in the experiment on SK-MEL-5 it was 12.8 µM (inactive); in the experiment with DU-145, 14.7 µM (inactive); with M14, 18.2 µM (inactive); in the experiment on MCF7 it was 9.71 µM (inactive); with CAKI-1, 11.3 µM (inactive). The GI50 with EKVX is 16.7 µM (inactive); in the experiment on OVCAR-8, 13.3 µM (inactive); with ACHN, 15.6 µM (inactive); with RPMI-8226 it was 3.8 µM (inactive); in the experiment with CCRF-CEM, 1.79 µM (inactive); in the experiment on SNB-19 it was 18.3 µM (inactive).

Regarding `C=CCO[C@]1(CC=C)C(=O)C(=O)OC1C1COC(C)(C)O1` (stereo partly drawn), the GI50 with COLO 205 was 20.5 µM (inactive); in the experiment with SR, 22.9 µM (inactive); in the experiment on HT-29, 19.8 µM (inactive); with HCC 2998 it was > 100 µM (inactive); with SF-268, 26.6 µM (inactive); with LOX IMVI it was 16.9 µM (inactive). Moreover, the GI50 with NCI-H23 is 53.2 µM (inactive); in the experiment on SK-MEL-5, 36.1 µM (inactive); with DU-145 it was > 100 µM (inactive); in the experiment on MCF7, 19.1 µM (inactive); with CAKI-1, 27.1 µM (inactive); in the experiment on EKVX, > 100 µM (inactive). The GI50 in the experiment on OVCAR-8 is 29.2 µM (inactive); with ACHN, 16.6 µM (inactive); with Malme-3M, 17.3 µM (inactive); with RPMI-8226, 25.9 µM (inactive); with CCRF-CEM it was 29.4 µM (inactive); in the experiment with SNB-19 it was > 100 µM (inactive).

As to `Cc1ccc(S(=O)(=O)Oc2ccc(OS(=O)(=O)c3ccc(C)cc3)c3c2C(=O)c2ccccc2C3=O)cc1`, the GI50 in the experiment with COLO 205, in the experiment on SR, in the experiment on HT-29, in the experiment with HCC 2998, in the experiment on SF-268 and with LOX IMVI was > 100 µM (inactive) each time. Also, the GI50 in the experiment on NCI-H23, with SK-MEL-2, with SK-MEL-5, in the experiment on DU-145, in the experiment on M14 and in the experiment with MCF7 was > 100 µM (inactive) each time. Besides, the GI50 with CAKI-1, in the experiment with EKVX, in the experiment with OVCAR-8, in the experiment on ACHN, in the experiment with Malme-3M and in the experiment with CCRF-CEM was > 100 µM (inactive) in each case. For the same compound, the GI50 in the experiment on SNB-19 is 54.6 µM (inactive).
